Like-named read-outs stand apart in the source and are kept apart here.
Tests used:
[1] = test system: IFN-γ production by OvA-stimulated splenocytes; assay: OvA-stimulated production of IFN-γ by splenocytes of OvA-immunized mice; assay type: in vivo
[2] = test system: IL-12R40 production by OvA-stimulated splenocytes; assay: OvA-stimulated production of IL-12R40 by splenocytes of OvA-immunized mice; settings: for activity at 0.0001 mg/kg / activity at 0.001 mg/kg / activity at 0.01 mg/kg: Mus musculus, Splenocyte, po, read-out: Production of IL-12R40 by splenocytes, % (% of control), OvA/FA; for Production of IL-12R40 by splenocytes / Production of IL-12R40 by splenocytes, % (% of control): OvA/FA
Protocol: The OvA was administered subcutaneously to the crest in a volume of 200 μl. Mice were immunized on day 1 with OvA in complete Freund's adjuvant (CFA; Sigma) and on day 15 with the antigen in incomplete Freund's adjuvant (IFA; Sigma). The immune response was analyzed on day 29. Mice were also immunized with 10 μg/mouse of OvA using Alum as an adjuvant.
Thymuses and spleens from mice of each treatment group were pooled, and then minced with scissors. The minced tissues were suspended in sterile PBS to form cell suspensions, filtered through a double gauze layer and centrifuged. Cells were washed twice with PBS, re-suspended in RPMI-1640 (Sigma) with 2.0 mM of L-glutamine, 50 μM of mercaptoethanol, and 10 μg/ml of gentamycin (complete medium); and cell counts were made. (The splenocyte suspension was washed with a 0.86% solution of NH4Cl to pre-lyse erthrocytes.)
Assessment of Mitogen- and Antigen-Induced Production of Cytokines: Thymic cells (1×10^6/well) in complete medium with 2% FCS were stimulated with ConA (0, 1, and 2 μg/ml). Splenocytes (1×10^6/well) in complete medium with 5% FCS were stimulated with ConA (0, 1, and 5 μg/ml) and with OvA (0-100 μg/ml). […] Supernatants from OvA-stimulated cultures were collected after 72 hours. Supernatants from both cultures were frozen, and kept at 20° C. Concentrations of IL-2, IL-4, IL-10, IL-12R40 and IFNγ in the supernatants were determined by solid-phase EIA with EIA Expansion Kits, available from BD Biosciences (formerly Pharmingen), in accordance with the manufacturer's instructions.

[3] = Indices of humoral immunity (CD20+, IgA, IgM, IgG, CH50, circulating immune complexes) before and after vaccination; settings: patients with infectious syndrome, hepatitis B vaccination with SCV-07, after vaccination, n = 16, M ± m
Protocol: This group, which received SCV-07 and hepatitis B vaccine, included thirty-three (33) essentially healthy students from the Chelyabinsk State Medical Academy.
The hepatitis vaccine Engerix-B® produced by SmithKlineBeecham-Biomed (Russia) was administered as a course of 3 doses given at months 0, 1, and 6. Immunological examinations of the subjects were carried out before the first administration of the vaccine and at one month after completion of the course of immunization.
Participants were evaluated to determine levels of leukocytes in peripheral blood, leukocytary formula, the presence of marker specific lymphocytes (CD3, CD4, CD8, CD16, CD95 and CD20), lysosomal activity of neutrophils; oxygen-dependent metabolism with spontaneous and induced hematocrit (HCT) tests, phagocytary function of neutrophils according to the latex particle absorption model; immunoglobulin IgA, IgM, IgG concentrations; total hemolytic activity of complement (CH50) in blood serum and for circulating immune complexes. […] A concentration of 10 MU/liter (l) was assumed to be a protective hepatitis B titer.
The immunomodulator SCV-07 was administered at the same time as the hepatitis B vaccine to determine if SCV-07 increased the efficacy of vaccination and to determine if it would correct the immunity disorders of subjects with infectious syndrome. A one milligram (1 mg) dose of SCV-07 was administered as an intra muscular injection to the 32 subjects of Group 2 of the study on days one to five, where day one was the day the first dose of the hepatitis B vaccine was administered. One (1) mg of SCV-07 was also administered with the second and third doses of vaccine one month and 6 months following administration of the initial vaccine dose. Study participants in Group I received injections of physiological saline which were administered on the same schedule as the SCV-07 to provide a placebo control group.

[4] = 0.1 μg/kg per os, OvA 100 μg/ml
[5] = 1.0 μg/kg per os, OvA 100 μg/ml
[6] = 10.0 μg/kg per os, OvA 10 μg/ml
[7] = 10.0 μg/kg per os, OvA 25 μg/ml
[8] = 10.0 μg/kg per os, OvA 50 μg/ml
[9] = 10.0 μg/kg per os, OvA 100 μg/ml

Compound: N[C@H](CCC(=O)N[C@@H](Cc1c[nH]c2ccccc12)C(=O)O)C(=O)O [SCV-07, γ-D-glutamyl-L-tryptophan]
- Production of IFN-γ by splenocytes, % (% of control) ([1]; OvA/Alum, 1.0 μg/kg i/p, OvA 100 μg/ml): 114.4%
- Production of IFN-γ by splenocytes ([1]; OvA/Alum, 1.0 μg/kg per os, OvA 0 μg/ml): 5620 pg/mL
- Production of IFN-γ by splenocytes ([1]; OvA/Alum, 1.0 μg/kg per os, OvA 10 μg/ml): 5523 pg/mL
- Production of IFN-γ by splenocytes ([1]; OvA/Alum, 1.0 μg/kg per os, OvA 25 μg/ml): 5795 pg/mL
- Production of IFN-γ by splenocytes ([1]; OvA/Alum, 1.0 μg/kg per os, OvA 50 μg/ml): 5795 pg/mL
- Production of IFN-γ by splenocytes ([1]; OvA/Alum, 1.0 μg/kg per os, OvA 100 μg/ml): 6860 pg/mL
- Production of IFN-γ by splenocytes ([1]; OvA/Alum, 10.0 μg/kg per os, OvA 0 μg/ml): 4266 pg/mL
- Production of IFN-γ by splenocytes ([1]; OvA/Alum, 10.0 μg/kg per os, OvA 10 μg/ml): 2045 pg/mL
- Production of IFN-γ by splenocytes ([1]; OvA/Alum, 10.0 μg/kg per os, OvA 25 μg/ml): 5066 pg/mL
- Production of IFN-γ by splenocytes ([1]; OvA/Alum, 10.0 μg/kg per os, OvA 50 μg/ml): 5066 pg/mL
- Production of IFN-γ by splenocytes ([1]; OvA/Alum, 10.0 μg/kg per os, OvA 100 μg/ml): 5976 pg/mL
- Production of IFN-γ by splenocytes, % (% of control) ([1]; OvA/FA, 0.1 μg/kg i/p, OvA 10 μg/ml): 126.6%
- Production of IFN-γ by splenocytes, % (% of control) ([1]; OvA/FA, 0.1 μg/kg i/p, OvA 25 μg/ml): 89.3%
- Production of IFN-γ by splenocytes, % (% of control) ([1]; OvA/FA, 0.1 μg/kg i/p, OvA 50 μg/ml): 118.0%
- Production of IFN-γ by splenocytes, % (% of control) ([1]; OvA/FA, 0.1 μg/kg i/p, OvA 100 μg/ml): 124.3%
- Production of IFN-γ by splenocytes, % (% of control) ([1]; OvA/FA, 1.0 μg/kg i/p, OvA 10 μg/ml): 139.0%
- Production of IFN-γ by splenocytes, % (% of control) ([1]; OvA/FA, 1.0 μg/kg i/p, OvA 25 μg/ml): 112.2%
- Production of IFN-γ by splenocytes, % (% of control) ([1]; OvA/FA, 1.0 μg/kg i/p, OvA 50 μg/ml): 99.0%
- Production of IFN-γ by splenocytes, % (% of control) ([1]; OvA/FA, 1.0 μg/kg i/p, OvA 100 μg/ml): 89.6%
- activity at 0.0001 mg/kg ([2]; 0.1 μg/kg per os, OvA 0 μg/ml): 100%
- activity at 0.0001 mg/kg ([2]; 0.1 μg/kg per os, OvA 10 μg/ml): 36.6%
- activity at 0.0001 mg/kg ([2]; 0.1 μg/kg per os, OvA 25 μg/ml): 24.3%
- activity at 0.0001 mg/kg ([2]; 0.1 μg/kg per os, OvA 50 μg/ml): 20.4%
- activity at 0.0001 mg/kg [2, 4]: 18.9%
- activity at 0.001 mg/kg ([2]; 1.0 μg/kg per os, OvA 0 μg/ml): 100%
- activity at 0.001 mg/kg ([2]; 1.0 μg/kg per os, OvA 10 μg/ml): 26.9%
- activity at 0.001 mg/kg ([2]; 1.0 μg/kg per os, OvA 25 μg/ml): 23.8%
- activity at 0.001 mg/kg ([2]; 1.0 μg/kg per os, OvA 50 μg/ml): 26.5%
- activity at 0.001 mg/kg [2, 5]: 25.1%
- activity at 0.01 mg/kg ([2]; 10.0 μg/kg per os, OvA 0 μg/ml): 100%
- activity at 0.01 mg/kg [2, 6]: 52.9%
- activity at 0.01 mg/kg [2, 7]: 40.7%
- activity at 0.01 mg/kg [2, 8]: 32.4%
- activity at 0.01 mg/kg [2, 9]: 31.9%
- OvA-induced production of IL-12r40 by splenocytes versus control ([2]; OvA/Alum, per os or i/p, data not shown): No significant differences
- Production of IL-12R40 by splenocytes ([2]; 0.1 μg/kg i/p, OvA 0 μg/ml): 1285.7 pg/mL
- Production of IL-12R40 by splenocytes ([2]; 0.1 μg/kg i/p, OvA 10 μg/ml): 492.4 pg/mL
- Production of IL-12R40 by splenocytes, % (% of control) ([2]; 0.1 μg/kg i/p, OvA 10 μg/ml): 38.3%
- Production of IL-12R40 by splenocytes ([2]; 0.1 μg/kg i/p, OvA 25 μg/ml): 499.6 pg/mL
- Production of IL-12R40 by splenocytes, % (% of control) ([2]; 0.1 μg/kg i/p, OvA 25 μg/ml): 38.9%
- Production of IL-12R40 by splenocytes ([2]; 0.1 μg/kg i/p, OvA 50 μg/ml): 420.8 pg/mL
- Production of IL-12R40 by splenocytes, % (% of control) ([2]; 0.1 μg/kg i/p, OvA 50 μg/ml): 32.7%
- Production of IL-12R40 by splenocytes ([2]; 0.1 μg/kg i/p, OvA 100 μg/ml): 522.8 pg/mL
- Production of IL-12R40 by splenocytes ([2]; 0.1 μg/kg per os, OvA 0 μg/ml): 1307.6 pg/mL
- Production of IL-12R40 by splenocytes ([2]; 0.1 μg/kg per os, OvA 10 μg/ml): 478.1 pg/mL
- Production of IL-12R40 by splenocytes ([2]; 0.1 μg/kg per os, OvA 25 μg/ml): 317.4 pg/mL
- Production of IL-12R40 by splenocytes ([2]; 0.1 μg/kg per os, OvA 50 μg/ml): 267.0 pg/mL
- Production of IL-12R40 by splenocytes [2, 4]: 246.5 pg/mL
- Production of IL-12R40 by splenocytes ([2]; 1.0 μg/kg i/p, OvA 0 μg/ml): 1524.0 pg/mL
- Production of IL-12R40 by splenocytes ([2]; 1.0 μg/kg i/p, OvA 10 μg/ml): 933.8 pg/mL
- Production of IL-12R40 by splenocytes, % (% of control) ([2]; 1.0 μg/kg i/p, OvA 10 μg/ml): 61.3%
- Production of IL-12R40 by splenocytes ([2]; 1.0 μg/kg i/p, OvA 25 μg/ml): 739.7 pg/mL
- Production of IL-12R40 by splenocytes, % (% of control) ([2]; 1.0 μg/kg i/p, OvA 25 μg/ml): 48.5%
- Production of IL-12R40 by splenocytes ([2]; 1.0 μg/kg i/p, OvA 50 μg/ml): 630.3 pg/mL
- Production of IL-12R40 by splenocytes, % (% of control) ([2]; 1.0 μg/kg i/p, OvA 50 μg/ml): 41.4%
- Production of IL-12R40 by splenocytes ([2]; 1.0 μg/kg i/p, OvA 100 μg/ml): 616.4 pg/mL
- Production of IL-12R40 by splenocytes, % (% of control) ([2]; 1.0 μg/kg i/p, OvA 100 μg/ml): 40.4%
- Production of IL-12R40 by splenocytes ([2]; 1.0 μg/kg per os, OvA 0 μg/ml): 1362.3 pg/mL
- Production of IL-12R40 by splenocytes ([2]; 1.0 μg/kg per os, OvA 10 μg/ml): 366.3 pg/mL
- Production of IL-12R40 by splenocytes ([2]; 1.0 μg/kg per os, OvA 25 μg/ml): 324.5 pg/mL
- Production of IL-12R40 by splenocytes ([2]; 1.0 μg/kg per os, OvA 50 μg/ml): 360.8 pg/mL
- Production of IL-12R40 by splenocytes [2, 5]: 342.4 pg/mL
- Production of IL-12R40 by splenocytes ([2]; 10.0 μg/kg per os, OvA 0 μg/ml): 1455.1 pg/mL
- Production of IL-12R40 by splenocytes [2, 6]: 769.3 pg/mL
- Production of IL-12R40 by splenocytes [2, 7]: 592 pg/mL
- Production of IL-12R40 by splenocytes [2, 8]: 471.9 pg/mL
- Production of IL-12R40 by splenocytes [2, 9]: 464.8 pg/mL
- CD20+ % [3]: 15.93 ± 1.20%
- CH50, conv. units [3]: 64.53 ± 4.11 conv. units
- CIC, conv. units [3]: 53.93 ± 8.03 conv. units
- IgA [3]: 1.821 ± 0.087 g/L
- IgG [3]: 8.931 ± 0.481 g/L
- IgM [3]: 1.179 ± 0.089 g/L

From patent US20090074815A1, “Immunomodulator Compounds as Vaccine Enhancers” (SCICLONE PHARMACEUTICALS, INC., priority 2005, published 2009)
